Test results reported in patent publication US20110207627A1, “EX VIVO THERAPEUTICS SCREENING OF LIVING BONE MARROW CELLS FOR MULTIPLE MYELOMA” (GEORGE MASON UNIVERSITY, priority 2008, published 2011).

Test system: CD138+ cells and bone marrow cells (BMC)
Assay: Ex vivo treatment of multiple myeloma bone marrow aspirates, reverse phase protein microarray, CD138+ cells compared with bone marrow cells
Type: cell-based, human
Settings: female, treatment naive multiple myeloma patient; 4 hours ex vivo; IL-6 stimulated cells compared to IGF1R & Rapamycin combination (FIG. 3)
From the text: A workflow using protein kinase signal pathway mapping technology was developed for the ex vivo, short-term drug treatment of fresh, living human multiple myeloma (MM) bone marrow aspirate tumor cells, compared to non MM bone marrow cells for the same patient. The study sought a) to measure the signal pathway perturbations caused by the inhibitor/ligand treatment in individual baseline bone marrow aspirate samples, b) to correlate this with the susceptibility of the ex vivo living sample to apoptosis induction, within 4 hours, by a molecular targeted inhibitor which blocks this pathway, and c) to compare the relative sensitivity of tumor and non tumor bone marrow cells treated in admixture under identical conditions to identify predictive/prognostic protein-based biomarkers.
Human bone marrow aspirates (n=20) and clinical information were collected following an IRB approved protocol from patients providing informed consent. A portion of the aspirate that was not needed for pathological diagnosis was immediately fixed for baseline analysis and the remaining sample was separated into multiple aliquots for ex vivo treatment. […]
Reverse phase protein arrays were used to quantitatively map 60 to 75 signal pathway endpoints. The impact of each treatment was measured on the selected endpoint compared to the vehicle control. […]

Q: “IL-6: cytokine used as exogenous ligand to stimulate cells” was tested. Which pro survival signaling did it give?
A: The pro survival signaling was “Differential pro survival signaling”.
